Results as given in US11015223B2, “Methods for determining response to a hypomethylating agent” (THE REGENTS OF THE UNIVERSITY OF CALIFORNIA, priority 2013, dated 2021).

Tested on: MDS patients
Experiment: Response to treatment by IWG response criteria revised in 2006 (CR/PR/HI = responders)
Assay type: in vivo, human
Conditions: for Non-Responders (NR/SD/PD/Died/NE) (%) / Non-Responders (NR/SD/PD/Died/NE) N / Responders (CR/PR/HI) N / Responders (CR/PR/HI) (%): all patients on the treatment
Excerpt: A total of 213 MDS patients treated azacitidine or decitabine were included in this study. Samples were obtained from patients treated at the Dana-Farber Cancer Institute (n=42), the MD Anderson Cancer Center (n=104), and as part of the DACO-020 (ADOPT) clinical trial of decitabine (n=67). All samples were collected with patient consent under IRB-approved protocols in accordance with the Declaration of Helsinki. There were no significant differences in baseline patient characteristics by treatment site (Table 1).
Response to treatment was assessed using IWG response criteria revised in 2006. Patients with either a complete response (CR), partial response (PR), or hematologic improvement (HI) were considered as ‘responders’ (R, n=100, 47%). whereas patients described as having ‘no response’, ‘stable disease’, ‘progressive disease’, ‘death’ before response assessment, or ‘not evaluable’ were considered ‘non-responders’ (NR, […], 53%).
Categorical variables were compared using a Fisher exact test, while continuous variables were compared using a Wilcoxon rank-sum test. A Cochran-Mantel-Haenszel (CMH) test was used to test for differences in response rate by mutational status controlling for treatment. Unadjusted and adjusted logistic regression models were used to predict response to therapy. A stepwise algorithm for logistic regression was also utilized to determine a final model; candidate variables considered for inclusion were all mutations, treatment, IPSS classification, age, and sex. The Hosmer and Lemeshow goodness-of-fit test was used to assess model fit for logistic regression models. Overall survival was calculated from the time of treatment to the time of death from any cause or was censored at the date last known alive. Unadjusted and adjusted Cox regression models were constructed for overall survival. A stepwise regression algorithm for Cox regression models was used including the same candidate variables as in the logistic regression modeling. Classification trees were also created using the Rpart package in R version 2.11.1 to classify responders based on mutational status. Cross-validation was used for tree pruning. All p-values reported are two-sided and considered significant at the 0.05 level. No adjustments were made for multiple hypothesis testing.

## Nc1ncn([C@H]2C[C@H](O)[C@@H](CO)O2)c(=O)n1 [decitabine, 5-aza-2′-deoxycytidine]
  Non-Responders (NR/SD/PD/Died/NE) (%): (53) %
  Non-Responders (NR/SD/PD/Died/NE) N: 76 N
  Responders (CR/PR/HI) N: 68 N
Listed as Dec Alone
  Responders (CR/PR/HI) (%): 47%
Listed as Decitabine Alone
  Responders (CR/PR/HI) (%): (47) %
Patients with ASXL1 mutation
  Response (%): 42%
  Response N: 29 N
Patients with ATRX mutation
  Response (%): 25%
  Response N: 2 N
Patients with BCOR mutation
  Response (%): 56%
  Response N: 9 N
Patients with CBL mutation
  Response (%): 11%
  Response N: 1 N
Patients with DNMT3A mutation
  Response (%): 36%
  Response N: 8 N
Patients with ETV6 mutation
  Response (%): 50%
  Response N: 3 N
Patients with EZH2 mutation
  Response (%): 44%
  Response N: 7 N
Patients with IDH1 mutation
  Response (%): 25%
  Response N: 2 N
Patients with IDH2 mutation
  Response (%): 17%
  Response N: 2 N
Patients with JAK2 mutation
  Response (%): 40%
  Response N: 2 N
Patients with KDM3A mutation
  Response (%): 25%
  Response N: 2 N
Patients with KDM6B mutation
  Response (%): 25%
  Response N: 2 N
Patients with KRAS mutation
  Response (%): 20%
  Response N: 1 N
Patients with MAML1 mutation
  Response (%): 54%
  Response N: 7 N
Patients with NF1 mutation
  Response (%): 31%
  Response N: 4 N
Patients with NOTCH1 mutation
  Response (%): 38%
  Response N: 5 N
Patients with NOTCH2 mutation
  Response (%): 58%
  Response N: 11 N
Patients with NPM1 mutation
  Response (%): 71%
  Response N: 5 N
Patients with NRAS mutation
  Response (%): 73%
  Response N: 11 N
Patients with PHF6 mutation
  Response (%): 50%
  Response N: 5 N
Patients with PRPF8 mutation
  Response (%): 33%
  Response N: 3 N
Patients with PTPN11 mutation
  Response (%): 17%
  Response N: 1 N
Patients with RUNX1 mutation
  Response (%): 53%
  Response N: 16 N
Patients with SCAF11 mutation
  Response (%): 25%
  Response N: 2 N
Patients with SF3B1 mutation
  Response (%): 36%
  Response N: 8 N
Patients with SRSF2 mutation
  Response (%): 56%
  Response N: 14 N
Patients with TET2 mutation
  Response (%): 54%
  Response N: 22 N
Patients with TLR1 mutation
  Response (%): 71%
  Response N: 5 N
Patients with TP53 mutation
  Response (%): 47%
  Response N: 9 N
Patients with U2AF1 mutation
  Response (%): 50%
  Response N: 9 N
Patients with ZRSR2 mutation
  Response (%): 44%
  Response N: 4 N

## Decitabine+
  Non-Responders (NR/SD/PD/Died/NE) (%): (56) %
  Non-Responders (NR/SD/PD/Died/NE) N: 15 N
  Responders (CR/PR/HI) (%): (44) %
  Responders (CR/PR/HI) N: 12 N
Listed as Dec Plus
  Responders (CR/PR/HI) (%): 44%
Patients with ASXL1 mutation
  Response (%): 50%
  Response N: 3 N
Patients with ATRX mutation
  Response (%): 100%
  Response N: 1 N
Patients with BCOR mutation
  Response (%): 50%
  Response N: 1 N
Patients with CBL mutation
  Response (%): 0 (0) %
  Response N: 0 (0) N
Patients with DNMT3A mutation
  Response (%): 67%
  Response N: 4 N
Patients with ETV6 mutation
  Response (%): 0 (0) %
  Response N: 0 (0) N
Patients with EZH2 mutation
  Response (%): 0 (0) %
  Response N: 0 (0) N
Patients with IDH1 mutation
  Response (%): 0 (0) %
  Response N: 0 (0) N
Patients with IDH2 mutation
  Response (%): 0 (0) %
  Response N: 0 (0) N
Patients with JAK2 mutation
  Response (%): 0 (0) %
  Response N: 0 (0) N
Patients with KDM3A mutation
  Response (%): 0 (0) %
  Response N: 0 (0) N
Patients with KDM6B mutation
  Response (%): 100%
  Response N: 3 N
Patients with KRAS mutation
  Response (%): 0 (0) %
  Response N: 0 (0) N
Patients with MAML1 mutation
  Response (%): 75%
  Response N: 3 N
Patients with NF1 mutation
  Response (%): 50%
  Response N: 1 N
Patients with NOTCH1 mutation
  Response (%): 0 (0) %
  Response N: 0 (0) N
Patients with NOTCH2 mutation
  Response (%): 100%
  Response N: 5 N
Patients with NPM1 mutation
  Response (%): 100%
  Response N: 1 N
Patients with NRAS mutation
  Response (%): 50%
  Response N: 1 N
Patients with PHF6 mutation
  Response (%): 0 (0) %
  Response N: 0 (0) N
Patients with PRPF8 mutation
  Response (%): 0 (0) %
  Response N: 0 (0) N
Patients with PTPN11 mutation
  Response (%): 67%
  Response N: 2 N
Patients with RUNX1 mutation
  Response (%): 75%
  Response N: 3 N
Patients with SCAF11 mutation
  Response (%): 100%
  Response N: 2 N
Patients with SF3B1 mutation
  Response (%): 50%
  Response N: 2 N
Patients with SRSF2 mutation
  Response (%): 50%
  Response N: 2 N
Patients with TET2 mutation
  Response (%): 80%
  Response N: 4 N
Patients with TLR1 mutation
  Response (%): 67%
  Response N: 2 N
Patients with TP53 mutation
  Response (%): 42%
  Response N: 5 N
Patients with U2AF1 mutation
  Response (%): 0 (0) %
  Response N: 0 (0) N
Patients with ZRSR2 mutation
  Response (%): 0 (0) %
  Response N: 0 (0) N
